Measurements as given in patent publication US11789013B2, “Componential analyzer, drug efficacy analyzer, and analysis method” (Hitachi High-Tech Corporation, priority 2013, dated 2023).

Tested on: hepatocytes
Experiment: Drug distribution / efflux fraction analysis in cultured hepatocytes (basolateral efflux, biliary excretion, intracellular fraction)
Type: in vitro ADME, rat
Details: for ratio of the amount of drug excreted into the bile duct to the total amount of drug taken up into the cells (BiRD), (B1−B2)/(C1+C2): pattern 1, sequences 1 (EGTA disrupted) and 2 (maintained), 37° C.; for ratio of the amount of drug excreted into the bile duct to the total amount of drug taken up into the cells (BiRD), (B1−B2)/(C1+C2) / Sup fraction (first fraction of the basolateral efflux, S1), index for tendency to remain or not to remain in the cells: 30 minutes; for ratio of the amount of drug excreted into the bile duct to the total amount of drug taken up into the cells (BiRD), (B1−B2)/(C1+C2) / ratio of the amount of drug excreted via transporter to the amount of drug excreted to the basolateral side (RexEMTP), (B2-B3)/B2: fluorescence; for ratio of the amount of drug excreted via transporter to the amount of drug excreted to the basolateral side (RexEMTP), (B2-B3)/B2: pattern 1, step 5, 30 minutes, sequences 2 (37° C.) and 3 (4° C.); for Sup fraction (first fraction of the basolateral efflux, S1), index for tendency to remain or not to remain in the cells: pattern 2 (sum of steps 4, 5, 6 = 100%), step 4, 37° C., in %
Protocol: Hepatocytes were prepared by in situ collagenase perfusion method. The details are as follows. A rat (5-6 week-old) is anesthetized with pentobarbital and laparotomy is performed to insert a catheter into the portal vein and inject the preperfusion solution (a Ca^2+ and Mg^2+ free Hanks' solution containing EGTA). After confirming that blood is sufficiently removed from the liver, the perfusion is stopped. The perfusate is changed into a collagenase solution to conduct perfusion. In this embodiment, the perfusion is conducted with a Hanks' solution containing 0.05% collagenase, but the collagenase solution is not limited to this. Once confirmed that the tissue between the cells was digested by collagenase, the perfusion is stopped. The liver is excised, sliced in a cooled Hanks' solution, and separated into cells by pipetting. Damaged hepatocytes are removed by centrifugation at 500 G for 5 minutes with an isotonic Percoll solution. The viability of the resultant hepatocytes is determined by the trypan blue-exclusion test. Hepatocytes having a viability of 85% or more are used for culture. Here, hepatocytes having a viability of 85% or more are used for culture, but such culture is, needless to say, not necessarily limited to the condition. In addition, the preparation of hepatocytes is not necessarily limited to that by in situ collagenase perfusion method. The hepatocytes to be used are not limited to those derived from a rat and the strain of rat is not limited. This embodiment uses hepatocytes, but cells are not limited to this.
Hepatocytes prepared by in situ collagenase perfusion method as described above are suspended in a medium. The hepatocytes are suspended at a density of 5×10^5 cells/mL in a medium and plated onto a commercially available culture dish coated with collagen. The density upon plating, the medium, and the culture plate 001 are not particularly limited. The culture plate is illustrated in FIG. 1. A 24 well culture plate having 24 culture regions (wells, 002) is here illustrated, but the culture plate is not limited to this as long as it can contain predetermined cells and containers in other shapes may be used. After plating, culture is started under conditions of 5% CO2 and 37° C. using a CO2 incubator. After 18 hours or more, the first medium change is conducted. Although the medium to be used for culture 18 hours after the plating is not particularly limited, in this embodiment, the medium (FCS−), a medium in which FCS is removed from the medium (10% FCS+), supplemented with Matrigel is used. After this, medium change with the medium (FCS−) is conducted every 24 hours. As described later, testing is conducted under three different conditions (sequences 1, 2, and 3: described in detail in step 5) in step 5, three independent culture plates with the same conditions are prepared at this point. In steps 0 to 4 and step 5, the same testing operations are conducted in all the three sequences.
The culture supernatant of the cells cultured in step 0 for 4 days is removed and 400 μL of Hanks' solution is added as a buffer. The cells are incubated at 37° C. for 10 minutes (FIG. 2, step 1). The type and amount of buffer are not particularly limited.
The buffer is removed, and then 200 μL of 10 μM CDF (a fluorescent reagent) is added to the well. The plate is incubated at 37° C. for 30 minutes and then maintained at 4° C. for 5 minutes (FIG. 2, step 2). The type, concentration, and amount of the reagent are not particularly limited. CDF emits fluorescence and can be therefore easily quantified by a plate reader as a model reagent. The amount of administration, 200 μL, was chosen so that the cells as a whole in the well would be immersed in the reagent. The concentration of CDF may be a concentration conventionally used for a fluorescence assay of cells. This concentration is preferably applied as an amount of the reagent for the detection with a plate reader. […]

Substance | ratio of the amount of drug excreted into the bile duct to the total amount of drug taken up into the cells (BiRD), (B1−B2)/(C1+C2) | ratio of the amount of drug excreted via transporter to the amount of drug excreted to the basolateral side (RexEMTP), (B2-B3)/B2 | Sup fraction (first fraction of the basolateral efflux, S1), index for tendency to remain or not to remain in the cells
CDF | 18.58 | 41.08 | 70.82
Rhodamine123 | 4.92 | 52.52 | 39.29
